{"source": "patent US9828360B2", "about": "(Array BioPharma Inc., priority 2012, dated 2017)", "assay_in_all_cases": "KinaseProfiler off-target kinase profiling", "assay_type_in_all_cases": "biochemical", "settings_in_all_cases": "10 μM, ATP near Km", "key": {"MKK6": {"biological_target": "T1, MKK6 (Homo sapiens, UniProt P52564)", "T1 construct": "purchased Millipore, Inc. (KinaseProfiler service)", "T1 sequence (P52564 whole entry)": "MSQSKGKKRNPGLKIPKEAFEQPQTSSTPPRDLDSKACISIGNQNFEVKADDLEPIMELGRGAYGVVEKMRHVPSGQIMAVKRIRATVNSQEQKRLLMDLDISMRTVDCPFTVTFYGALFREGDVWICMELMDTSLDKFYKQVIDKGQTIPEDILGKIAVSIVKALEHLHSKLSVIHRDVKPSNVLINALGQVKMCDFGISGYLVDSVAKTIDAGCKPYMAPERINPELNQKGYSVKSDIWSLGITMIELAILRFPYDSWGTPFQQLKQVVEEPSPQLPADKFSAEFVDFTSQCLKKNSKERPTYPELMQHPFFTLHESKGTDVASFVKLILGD", "procedure": "(§1) A representative compound of the invention (Example 48) was tested for off-target kinase activity at a concentration of 10 μM by Millipore, Inc. in their KinaseProfiler™ service against all the kinases available in their full kinase panel. The compound was run in duplicate at a concentration of ATP near the Km for each individual kinase according to Millipore's specifications. The results are shown in Table B. Data are reported as percent of control (POC) and are the average of the two replicates."}, "TAO1": {"biological_target": "T2, TAO1 (Homo sapiens, UniProt Q7L7X3)", "T2 construct": "purchased Millipore, Inc. (KinaseProfiler service)", "T2 sequence (Q7L7X3 whole entry)": "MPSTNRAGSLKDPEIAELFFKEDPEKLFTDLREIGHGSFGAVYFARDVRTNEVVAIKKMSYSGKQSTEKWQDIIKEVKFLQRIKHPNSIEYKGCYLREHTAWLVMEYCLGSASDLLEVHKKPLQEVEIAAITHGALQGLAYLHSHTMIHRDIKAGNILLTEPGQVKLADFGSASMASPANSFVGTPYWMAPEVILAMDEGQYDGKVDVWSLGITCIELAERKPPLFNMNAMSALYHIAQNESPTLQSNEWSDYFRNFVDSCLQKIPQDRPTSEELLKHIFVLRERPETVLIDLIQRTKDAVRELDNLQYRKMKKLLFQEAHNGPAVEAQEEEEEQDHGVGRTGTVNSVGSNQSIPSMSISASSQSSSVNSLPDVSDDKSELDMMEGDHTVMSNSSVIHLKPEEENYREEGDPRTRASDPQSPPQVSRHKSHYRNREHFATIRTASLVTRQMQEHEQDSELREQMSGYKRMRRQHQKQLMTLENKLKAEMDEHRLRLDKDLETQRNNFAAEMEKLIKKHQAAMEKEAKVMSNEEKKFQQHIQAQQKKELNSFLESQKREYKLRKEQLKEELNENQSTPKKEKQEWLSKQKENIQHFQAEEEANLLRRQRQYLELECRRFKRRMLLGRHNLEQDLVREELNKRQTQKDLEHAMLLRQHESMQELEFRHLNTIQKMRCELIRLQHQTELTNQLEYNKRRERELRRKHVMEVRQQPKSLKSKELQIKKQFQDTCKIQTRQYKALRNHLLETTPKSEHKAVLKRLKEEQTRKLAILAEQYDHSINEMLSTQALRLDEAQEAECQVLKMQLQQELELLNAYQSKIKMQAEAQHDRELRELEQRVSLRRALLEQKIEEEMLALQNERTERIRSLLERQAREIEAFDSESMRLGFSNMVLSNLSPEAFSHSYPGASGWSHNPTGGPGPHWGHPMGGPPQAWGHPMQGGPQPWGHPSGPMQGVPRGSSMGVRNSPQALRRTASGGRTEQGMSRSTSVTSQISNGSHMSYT", "procedure": "as §1"}, "MST3": {"biological_target": "T3, MST3 (Homo sapiens, UniProt Q9Y6E0)", "T3 construct": "purchased Millipore, Inc. (KinaseProfiler service)", "procedure": "as §1"}, "MKNK2": {"biological_target": "T4, MKNK2 (Homo sapiens, UniProt Q9HBH9)", "T4 construct": "purchased Millipore, Inc. (KinaseProfiler service)", "procedure": "as §1"}, "Rsk4": {"biological_target": "T5, Rsk4 (Homo sapiens, UniProt Q9UK32)", "T5 construct": "purchased Millipore, Inc. (KinaseProfiler service)", "procedure": "as §1"}, "NEK11": {"biological_target": "T6, NEK11 (Homo sapiens, UniProt Q8NG66)", "T6 construct": "purchased Millipore, Inc. (KinaseProfiler service)", "procedure": "as §1"}, "BrSK1": {"biological_target": "T7, BrSK1 (Homo sapiens, UniProt Q8TDC3)", "T7 construct": "purchased Millipore, Inc. (KinaseProfiler service)", "procedure": "as §1"}, "TLK2": {"biological_target": "T8, TLK2 (Homo sapiens, UniProt Q86UE8)", "T8 construct": "purchased Millipore, Inc. (KinaseProfiler service)", "procedure": "as §1"}, "Syk": {"biological_target": "T9, Syk (Homo sapiens, UniProt P43405)", "T9 construct": "purchased Millipore, Inc. (KinaseProfiler service)", "procedure": "as §1"}, "EphB1": {"biological_target": "T10, EphB1 (Homo sapiens, UniProt P54762)", "T10 construct": "purchased Millipore, Inc. (KinaseProfiler service)", "procedure": "as §1"}, "EphA4": {"biological_target": "T11, EphA4 (Homo sapiens, UniProt P54764)", "T11 construct": "purchased Millipore, Inc. (KinaseProfiler service)", "procedure": "as §1"}, "MKK7beta": {"biological_target": "T12, MKK7beta (Homo sapiens, UniProt O14733)", "T12 construct": "purchased Millipore, Inc. (KinaseProfiler service)", "procedure": "as §1"}, "Rsk3": {"biological_target": "T13, Rsk3 (Homo sapiens, UniProt Q15349)", "T13 construct": "purchased Millipore, Inc. (KinaseProfiler service)", "procedure": "as §1"}, "ErbB4": {"biological_target": "T14, ErbB4 (Homo sapiens, UniProt Q15303)", "T14 construct": "purchased Millipore, Inc. (KinaseProfiler service)", "procedure": "as §1"}, "Rse": {"biological_target": "T15, Rse (Homo sapiens, UniProt Q06418)", "T15 construct": "purchased Millipore, Inc. (KinaseProfiler service)", "T15 sequence (Q06418 41-890)": "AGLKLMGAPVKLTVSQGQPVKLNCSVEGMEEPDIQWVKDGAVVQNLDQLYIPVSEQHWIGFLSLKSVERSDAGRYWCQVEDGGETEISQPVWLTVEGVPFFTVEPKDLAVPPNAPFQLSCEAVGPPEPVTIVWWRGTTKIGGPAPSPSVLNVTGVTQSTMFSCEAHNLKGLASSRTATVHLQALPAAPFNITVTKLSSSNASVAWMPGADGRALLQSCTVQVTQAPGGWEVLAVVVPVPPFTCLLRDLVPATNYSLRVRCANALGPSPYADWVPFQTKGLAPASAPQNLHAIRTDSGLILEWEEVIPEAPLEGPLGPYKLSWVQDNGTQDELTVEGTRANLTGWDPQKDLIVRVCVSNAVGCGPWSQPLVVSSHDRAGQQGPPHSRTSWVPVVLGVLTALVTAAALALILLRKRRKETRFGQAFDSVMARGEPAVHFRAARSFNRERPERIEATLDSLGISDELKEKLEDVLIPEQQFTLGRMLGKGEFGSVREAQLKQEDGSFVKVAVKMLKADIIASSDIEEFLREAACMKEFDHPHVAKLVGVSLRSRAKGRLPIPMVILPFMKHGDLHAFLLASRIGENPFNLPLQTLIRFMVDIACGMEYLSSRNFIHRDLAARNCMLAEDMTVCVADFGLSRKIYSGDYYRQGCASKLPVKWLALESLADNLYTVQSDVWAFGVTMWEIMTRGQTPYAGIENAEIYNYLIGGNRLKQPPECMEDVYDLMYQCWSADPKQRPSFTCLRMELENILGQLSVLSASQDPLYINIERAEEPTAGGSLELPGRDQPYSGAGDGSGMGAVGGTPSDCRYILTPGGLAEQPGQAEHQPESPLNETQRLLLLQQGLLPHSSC", "procedure": "as §1"}, "ULK3": {"biological_target": "T16, ULK3 (Homo sapiens, UniProt Q6PHR2)", "T16 construct": "purchased Millipore, Inc. (KinaseProfiler service)", "procedure": "as §1"}, "FGFR4": {"biological_target": "T17, FGFR4 (Homo sapiens, UniProt P22455)", "T17 construct": "purchased Millipore, Inc. (KinaseProfiler service)", "procedure": "as §1"}, "Yes": {"biological_target": "T18, Yes (Homo sapiens, UniProt P07947)", "T18 construct": "purchased Millipore, Inc. (KinaseProfiler service)", "procedure": "as §1"}, "Flt4": {"biological_target": "T19, Flt4 (Homo sapiens, UniProt P35916)", "T19 construct": "purchased Millipore, Inc. (KinaseProfiler service)", "procedure": "as §1"}, "EphA3": {"biological_target": "T20, EphA3 (Homo sapiens, UniProt P29320)", "T20 construct": "purchased Millipore, Inc. (KinaseProfiler service)", "T20 sequence (P29320 21-983)": "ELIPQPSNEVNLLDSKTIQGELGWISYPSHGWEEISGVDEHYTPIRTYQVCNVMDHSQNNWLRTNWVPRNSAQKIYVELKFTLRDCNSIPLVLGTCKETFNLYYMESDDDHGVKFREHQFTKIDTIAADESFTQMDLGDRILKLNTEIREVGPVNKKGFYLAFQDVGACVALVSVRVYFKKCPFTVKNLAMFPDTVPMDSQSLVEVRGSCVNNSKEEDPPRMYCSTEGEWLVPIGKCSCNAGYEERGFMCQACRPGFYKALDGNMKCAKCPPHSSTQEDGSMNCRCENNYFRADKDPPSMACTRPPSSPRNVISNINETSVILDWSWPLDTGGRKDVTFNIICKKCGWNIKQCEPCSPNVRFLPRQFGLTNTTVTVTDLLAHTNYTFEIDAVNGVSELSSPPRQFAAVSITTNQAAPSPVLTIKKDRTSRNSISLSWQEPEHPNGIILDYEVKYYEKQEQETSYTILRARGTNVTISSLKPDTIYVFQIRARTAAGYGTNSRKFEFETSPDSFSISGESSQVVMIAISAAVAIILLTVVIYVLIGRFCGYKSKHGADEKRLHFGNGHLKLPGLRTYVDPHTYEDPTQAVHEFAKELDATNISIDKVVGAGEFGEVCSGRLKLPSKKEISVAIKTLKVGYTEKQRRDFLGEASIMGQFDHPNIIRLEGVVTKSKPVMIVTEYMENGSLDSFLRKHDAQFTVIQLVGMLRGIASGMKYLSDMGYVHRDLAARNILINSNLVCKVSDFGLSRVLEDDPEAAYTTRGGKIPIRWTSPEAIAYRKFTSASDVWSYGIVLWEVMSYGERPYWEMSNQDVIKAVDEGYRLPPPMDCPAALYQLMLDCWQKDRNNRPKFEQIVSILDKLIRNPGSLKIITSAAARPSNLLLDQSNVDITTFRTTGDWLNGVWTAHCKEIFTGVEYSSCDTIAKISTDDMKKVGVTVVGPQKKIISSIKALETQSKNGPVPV", "procedure": "as §1"}, "IKKbeta": {"biological_target": "T21, IKKbeta (Homo sapiens, UniProt O14920)", "T21 construct": "purchased Millipore, Inc. (KinaseProfiler service)", "procedure": "as §1"}, "Pim-3": {"biological_target": "T22, Pim-3 (Homo sapiens, UniProt Q86V86)", "T22 construct": "purchased Millipore, Inc. (KinaseProfiler service)", "procedure": "as §1"}, "ROCK-I": {"biological_target": "T23, ROCK-I (Homo sapiens, UniProt Q13464)", "T23 construct": "purchased Millipore, Inc. (KinaseProfiler service)", "procedure": "as §1"}, "VRK2": {"biological_target": "T24, VRK2 (Homo sapiens, UniProt Q86Y07)", "T24 construct": "purchased Millipore, Inc. (KinaseProfiler service)", "procedure": "as §1"}, "LIMK1": {"biological_target": "T25, LIMK1 (Homo sapiens, UniProt P53667)", "T25 construct": "purchased Millipore, Inc. (KinaseProfiler service)", "procedure": "as §1"}, "DAPK2": {"biological_target": "T26, DAPK2 (Homo sapiens, UniProt Q9UIK4)", "T26 construct": "purchased Millipore, Inc. (KinaseProfiler service)", "T26 sequence (Q9UIK4 whole entry)": "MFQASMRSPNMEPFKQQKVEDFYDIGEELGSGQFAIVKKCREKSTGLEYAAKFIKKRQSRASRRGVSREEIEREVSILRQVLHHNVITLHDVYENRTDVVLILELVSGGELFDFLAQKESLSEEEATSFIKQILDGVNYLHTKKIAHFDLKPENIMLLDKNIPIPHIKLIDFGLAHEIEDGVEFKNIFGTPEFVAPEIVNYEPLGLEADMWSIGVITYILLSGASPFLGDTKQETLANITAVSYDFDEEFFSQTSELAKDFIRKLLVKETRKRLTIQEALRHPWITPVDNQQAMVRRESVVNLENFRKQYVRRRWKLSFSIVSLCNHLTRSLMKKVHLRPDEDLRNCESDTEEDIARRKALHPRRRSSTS", "procedure": "as §1"}, "Pim-1": {"biological_target": "T27, Pim-1 (Homo sapiens, UniProt P11309)", "T27 construct": "purchased Millipore, Inc. (KinaseProfiler service)", "T27 sequence (P11309 whole entry)": "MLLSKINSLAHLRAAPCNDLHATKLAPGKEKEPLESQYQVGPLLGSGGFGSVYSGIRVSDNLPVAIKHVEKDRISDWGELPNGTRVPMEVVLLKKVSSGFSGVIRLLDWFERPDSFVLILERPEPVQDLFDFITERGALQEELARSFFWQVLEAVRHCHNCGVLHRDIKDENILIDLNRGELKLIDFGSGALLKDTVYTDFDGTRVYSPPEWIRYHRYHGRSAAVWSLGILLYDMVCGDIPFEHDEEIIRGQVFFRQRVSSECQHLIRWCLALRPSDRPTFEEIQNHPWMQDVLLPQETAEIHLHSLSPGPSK", "procedure": "as §1"}, "PKCbetaII": {"biological_target": "T28, PKCbetaII (Homo sapiens, UniProt P05771)", "T28 construct": "purchased Millipore, Inc. (KinaseProfiler service)", "procedure": "as §1"}, "PTK6": {"biological_target": "T29, PTK6 (Homo sapiens, UniProt Q13882)", "T29 construct": "purchased Millipore, Inc. (KinaseProfiler service)", "procedure": "as §1"}, "CAMK2b": {"biological_target": "T30, CAMK2b (Homo sapiens, UniProt Q13554)", "T30 construct": "purchased Millipore, Inc. (KinaseProfiler service)", "procedure": "as §1"}, "TSSK2": {"biological_target": "T31, TSSK2 (Homo sapiens, UniProt Q96PF2)", "T31 construct": "purchased Millipore, Inc. (KinaseProfiler service)", "T31 sequence (Q96PF2 whole entry)": "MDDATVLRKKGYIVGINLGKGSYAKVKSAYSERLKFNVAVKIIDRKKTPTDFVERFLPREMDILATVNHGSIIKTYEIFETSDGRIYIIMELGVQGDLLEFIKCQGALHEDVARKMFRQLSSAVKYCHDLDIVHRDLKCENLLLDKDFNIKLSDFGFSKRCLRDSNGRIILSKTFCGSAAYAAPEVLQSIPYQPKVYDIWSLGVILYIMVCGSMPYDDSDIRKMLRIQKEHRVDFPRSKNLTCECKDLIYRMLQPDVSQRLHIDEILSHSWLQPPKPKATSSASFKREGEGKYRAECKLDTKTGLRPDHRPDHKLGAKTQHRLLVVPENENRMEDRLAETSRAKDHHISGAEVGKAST", "procedure": "as §1"}, "IGF-1R": {"biological_target": "T32, IGF-1R (Homo sapiens, UniProt P08069)", "T32 construct": "purchased Millipore, Inc. (KinaseProfiler service)", "procedure": "as §1"}, "IRAK1": {"biological_target": "T33, IRAK1 (Homo sapiens, UniProt P51617)", "T33 construct": "purchased Millipore, Inc. (KinaseProfiler service)", "procedure": "as §1"}, "Plk1": {"biological_target": "T34, Plk1 (Homo sapiens, UniProt P53350)", "T34 construct": "purchased Millipore, Inc. (KinaseProfiler service)", "procedure": "as §1"}, "eEF-2K": {"biological_target": "T35, eEF-2K (Homo sapiens, UniProt O00418)", "T35 construct": "purchased Millipore, Inc. (KinaseProfiler service)", "procedure": "as §1"}, "SIK": {"biological_target": "T36, SIK (Homo sapiens, UniProt P57059)", "T36 construct": "purchased Millipore, Inc. (KinaseProfiler service)", "procedure": "as §1"}, "CAMK4": {"biological_target": "T37, CAMK4 (Homo sapiens, UniProt Q16566)", "T37 construct": "purchased Millipore, Inc. (KinaseProfiler service)", "procedure": "as §1"}, "TAK1": {"biological_target": "T38, TAK1 (Homo sapiens, UniProt O43318)", "T38 construct": "purchased Millipore, Inc. (KinaseProfiler service)", "procedure": "as §1"}, "p38delta": {"biological_target": "T39, p38delta (Homo sapiens, UniProt O15264)", "T39 construct": "purchased Millipore, Inc. (KinaseProfiler service)", "T39 sequence (O15264 whole entry)": "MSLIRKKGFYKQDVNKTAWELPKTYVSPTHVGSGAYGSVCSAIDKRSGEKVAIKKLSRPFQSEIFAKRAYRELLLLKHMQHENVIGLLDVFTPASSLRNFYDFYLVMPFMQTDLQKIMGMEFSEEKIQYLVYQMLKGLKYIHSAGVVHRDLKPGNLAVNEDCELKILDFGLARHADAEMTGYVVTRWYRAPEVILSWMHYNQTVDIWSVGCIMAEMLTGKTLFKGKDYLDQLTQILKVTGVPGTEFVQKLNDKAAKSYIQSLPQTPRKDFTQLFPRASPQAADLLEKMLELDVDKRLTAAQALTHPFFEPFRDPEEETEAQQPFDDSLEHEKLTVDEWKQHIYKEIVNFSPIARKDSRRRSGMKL", "procedure": "as §1"}, "NEK3": {"biological_target": "T40, NEK3 (Homo sapiens, UniProt P51956)", "T40 construct": "purchased Millipore, Inc. (KinaseProfiler service)", "procedure": "as §1"}, "CAMK1": {"biological_target": "T41, CAMK1 (Homo sapiens, UniProt Q14012)", "T41 construct": "purchased Millipore, Inc. (KinaseProfiler service)", "T41 sequence (Q14012 whole entry)": "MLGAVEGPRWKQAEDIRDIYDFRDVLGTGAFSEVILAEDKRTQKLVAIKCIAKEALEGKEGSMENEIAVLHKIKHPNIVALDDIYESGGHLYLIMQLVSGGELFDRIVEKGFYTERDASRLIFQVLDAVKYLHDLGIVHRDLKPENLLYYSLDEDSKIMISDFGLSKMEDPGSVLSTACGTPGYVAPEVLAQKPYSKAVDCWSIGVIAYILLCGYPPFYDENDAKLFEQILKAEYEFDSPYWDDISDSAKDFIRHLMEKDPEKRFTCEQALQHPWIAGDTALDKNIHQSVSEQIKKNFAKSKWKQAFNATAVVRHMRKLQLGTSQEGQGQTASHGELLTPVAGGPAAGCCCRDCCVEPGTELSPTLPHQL", "procedure": "as §1"}}, "data": [{"smiles": "COCCN1C[C@@H](NC(=O)Nc2sc(C(C)C)nc2-c2ccccc2)[C@H](c2ccccc2)C1", "note": "[Example 48, 1-(2-isopropyl-4-phenylthiazol-5-yl)-3-((3S,4R)-1-(2-methoxyethyl)-4-phenylpyrrolidin-3-yl)urea]", "values": [{"measurement": "Avg POC", "setting": "MKK6", "result": "121% of control"}, {"measurement": "Avg POC", "setting": "TAO1", "result": "101% of control"}, {"measurement": "Avg POC", "setting": "MST3", "result": "97% of control"}, {"measurement": "Avg POC", "setting": "MKNK2", "result": "96% of control"}, {"measurement": "Avg POC", "setting": "Rsk4", "result": "116% of control"}, {"measurement": "Avg POC", "setting": "NEK11", "result": "105% of control"}, {"measurement": "Avg POC", "setting": "BrSK1", "result": "123.5% of control"}, {"measurement": "Avg POC", "setting": "TLK2", "result": "98% of control"}, {"measurement": "Avg POC", "setting": "Syk", "result": "86.5% of control"}, {"measurement": "Avg POC", "setting": "EphB1", "result": "107.5% of control"}, {"measurement": "Avg POC", "setting": "EphA4", "result": "105.5% of control"}, {"measurement": "Avg POC", "setting": "MKK7beta", "result": "98% of control"}, {"measurement": "Avg POC", "setting": "Rsk3", "result": "108% of control"}, {"measurement": "Avg POC", "setting": "ErbB4", "result": "97% of control"}, {"measurement": "Avg POC", "setting": "Rse", "result": "117% of control"}, {"measurement": "Avg POC", "setting": "ULK3", "result": "100% of control"}, {"measurement": "Avg POC", "setting": "FGFR4", "result": "102.5% of control"}, {"measurement": "Avg POC", "setting": "Yes", "result": "97.5% of control"}, {"measurement": "Avg POC", "setting": "Flt4", "result": "103% of control"}, {"measurement": "Avg POC", "setting": "EphA3", "result": "112% of control"}, {"measurement": "Avg POC", "setting": "IKKbeta", "result": "96% of control"}, {"measurement": "Avg POC", "setting": "Pim-3", "result": "140.5% of control"}, {"measurement": "Avg POC", "setting": "ROCK-I", "result": "103.5% of control"}, {"measurement": "Avg POC", "setting": "VRK2", "result": "98% of control"}, {"measurement": "Avg POC", "setting": "LIMK1", "result": "104% of control"}, {"measurement": "Avg POC", "setting": "DAPK2", "result": "99% of control"}, {"measurement": "Avg POC", "setting": "Pim-1", "result": "134% of control"}, {"measurement": "Avg POC", "setting": "PKCbetaII", "result": "97.5% of control"}, {"measurement": "Avg POC", "setting": "PTK6", "result": "99.5% of control"}, {"measurement": "Avg POC", "setting": "CAMK2b", "result": "90% of control"}, {"measurement": "Avg POC", "setting": "TSSK2", "result": "124% of control"}, {"measurement": "Avg POC", "setting": "IGF-1R", "result": "85.5% of control"}, {"measurement": "Avg POC", "setting": "IRAK1", "result": "100.5% of control"}, {"measurement": "Avg POC", "setting": "Plk1", "result": "93% of control"}, {"measurement": "Avg POC", "setting": "eEF-2K", "result": "116.5% of control"}, {"measurement": "Avg POC", "setting": "SIK", "result": "111% of control"}, {"measurement": "Avg POC", "setting": "CAMK4", "result": "101.5% of control"}, {"measurement": "Avg POC", "setting": "TAK1", "result": "104% of control"}, {"measurement": "Avg POC", "setting": "p38delta", "result": "108.5% of control"}, {"measurement": "Avg POC", "setting": "NEK3", "result": "129% of control"}, {"measurement": "Avg POC", "setting": "CAMK1", "result": "104.5% of control"}]}]}
